# pEC50: −log10 of the molar value.
# Target: T1, GLP1R (Homo sapiens, UniProt P43220)
# Test: GLP1R cAMP assay (HTRF), HEK293/GLP-1R/CRE/Luc, Clone 4
# Conditions: not given
# Target sequence in this assay (P43220 24-463): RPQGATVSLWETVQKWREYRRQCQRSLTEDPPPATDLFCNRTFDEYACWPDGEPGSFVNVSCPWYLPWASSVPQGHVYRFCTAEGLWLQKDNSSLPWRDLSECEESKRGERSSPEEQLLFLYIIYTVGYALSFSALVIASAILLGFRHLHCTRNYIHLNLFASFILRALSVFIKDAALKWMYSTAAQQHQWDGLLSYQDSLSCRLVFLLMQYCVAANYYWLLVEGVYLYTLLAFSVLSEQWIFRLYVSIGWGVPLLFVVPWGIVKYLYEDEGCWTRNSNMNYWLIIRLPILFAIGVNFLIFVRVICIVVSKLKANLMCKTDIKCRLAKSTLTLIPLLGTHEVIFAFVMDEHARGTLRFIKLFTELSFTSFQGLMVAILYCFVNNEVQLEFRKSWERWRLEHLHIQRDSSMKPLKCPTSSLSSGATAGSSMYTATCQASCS
row,Compound,pEC50
1,"O=C(O)c1ccc2nc(Cc3ccc(-c4cccc(OCc5ccc(Cl)cc5F)n4)c(F)c3)n(C[C@@H]3CCO3)c2n1 [Compound 102, (S)-2-(4-(6-((4-chloro-2-fluorobenzyl)oxy)pyridin-2-yl)-3-fluorobenzyl)-3-(oxetan-2-ylmethyl)-3H-imidazo[4,5-b]pyridine-5-carboxylic acid]",> 7.82
2,"O=C(O)c1ccc2nc(Cc3cc(F)c(-c4cccc(OCc5ccc(Cl)cc5F)n4)cc3F)n(C[C@@H]3CCO3)c2c1 [Compound 257, (S)-2-(4-(6-((4-chloro-2-fluorobenzyl)oxy)pyridin-2-yl)-2,5-difluorobenzyl)-1-(oxetan-2-ylmethyl)-1H-benzo[d]imidazole-6-carboxylic acid]",> 7.82
3,"N#Cc1ccc(COc2cccc(-c3cc(F)c(Cc4nc5ccc(C(=O)O)cc5n4C[C@@H]4CCO4)cc3F)n2)c(F)c1 [Compound 271, (S)-2-(4-(6-((4-cyano-2-fluorobenzyl)oxy)pyridin-2-yl)-2,5-difluorobenzyl)-1-(oxetan-2-ylmethyl)-1H-benzo[d]imidazole-6-carboxylic acid]",> 7.82
4,"N#Cc1ccc(COc2nc(-c3ccc(Cc4nc5ccc(C(=O)O)nc5n4C[C@@H]4CCO4)c(F)c3)ccc2F)c(F)c1 [Compound 284, (S)-2-(4-(6-(4-cyano-2-fluorobenzyloxy)-5-fluoropyridin-2-yl)-2-fluorobenzyl)-3-(oxetan-2-ylmethyl)-3H-imidazo[4,5-b]pyridine-5-carboxylic acid]",> 7.82
5,"O=C(O)c1ccc2nc(Cc3ccc(-c4ncc(F)c(OCc5ccc(F)cc5F)n4)cc3F)n(C[C@@H]3CCO3)c2n1 [Compound 285, (S)-2-(4-(4-((2,4-difluorobenzyl)oxy)-5-fluoropyrimidin-2-yl)-2-fluorobenzyl)-3-(oxetan-2-ylmethyl)-3H-imidazo[4,5-b]pyridine-5-carboxylic acid]",> 7.82
6,"O=C(O)c1ccc2nc(Cc3cc(F)c(-c4cccc(OCc5ncc(F)cc5F)n4)cc3F)n(C[C@@H]3CCO3)c2n1 [Compound 297, (S)-2-(4-(6-((3,5-difluoropyridin-2-yl)methoxy)pyridin-2-yl)-2,5-difluorobenzyl)-3-(oxetan-2-ylmethyl)-3H-imidazo[4,5-b]pyridine-5-carboxylic acid]",> 7.82
7,"O=C(O)c1ccc2nc(Cc3ccc(-c4nc(OCc5ccc(Cl)cc5F)c(F)cc4F)cc3F)n(C[C@@H]3CCO3)c2n1 [Compound 299, (S)-2-(4-(6-(4-chloro-2-fluorobenzyloxy)-3,5-difluoropyridin-2-yl)-2-fluorobenzyl)-3-(oxetan-2-ylmethyl)-3H-imidazo [4,5-b]pyridine-S-carboxylic acid]",> 7.82
8,"N#Cc1cnc(COc2nc(-c3ccc(Cc4nc5ccc(C(=O)O)nc5n4C[C@@H]4CCO4)cc3F)ncc2F)c(F)c1 [Compound 302, (S)-2-(4-(4-((5-cyano-3-fluoropyridin-2-yl)methoxy)-5-fluoropyrimidin-2-yl)-3-fluorobenzyl)-3-(oxetan-2-ylmethyl)-3H-imidazo[4,5-b]pyridine-5-carboxylic acid]",6.82 to 7.82
9,"O=C(O)c1ccc2nc(Cc3ccc(-c4cccc(OCc5ccc(-n6ccnc6)cc5)n4)cc3F)n(C[C@@H]3CCO3)c2n1 [Compound 304, (S)-2-(4-(6-((4-(1H-imidazol-1-yl)benzyl)oxy)pyridin-2-yl)-2-fluorobenzyl)-3-(oxetan-2-ylmethyl)-3H-imidazo[4,5-b]pyridine-5-carboxylic acid]",> 7.82
10,"O=C(O)c1ccc2nc(Cc3ccc(-c4nc(OCc5ccc(Cl)cc5F)c(F)cc4F)c(F)c3)n(C[C@@H]3CCO3)c2n1 [Compound 306, (S)-2-(4-(6-((4-chloro-2-fluorobenzyl)oxy)-3,5-difluoropyridin-2-yl)-3-fluorobenzyl)-3-(oxetan-2-ylmethyl)-3H-imidazo[4,5-b]pyridine-5-carboxylic acid]",> 7.82
11,"O=C(O)c1ccc2nc(Cc3ccc(-c4cccc(OCc5ccc(Cl)cc5F)n4)cc3F)n(C[C@@H]3CCO3)c2c1F [Compound 309, (S)-2-(4-(6-((4-chloro-2-fluorobenzyl)oxy)pyridin-2-yl)-2-fluorobenzyl)-7-fluoro-1-(oxetan-2-ylmethyl)-1H-benzo[d]imidazole-6-carboxylic acid]",> 7.82
12,"N#Cc1ccc(COc2nc(-c3cc(F)c(Cc4nc5ccc(C(=O)O)c(F)c5n4C[C@@H]4CCO4)cc3F)ncc2F)nc1 [Compound 313, (S)-2-(4-(4-((5-cyanopyridin-2-yl)methoxy)-5-fluoropyrimidin-2-yl)-2,5-difluorobenzyl)-7-fluoro-1-(oxetan-2-ylmethyl)-1H-benzo[d]imidazole-6-carboxylic acid]",> 7.82
13,"N#Cc1ccc(COc2cccc(N3CCC(=Cc4nc5ccc(C(=O)O)nc5n4C[C@@H]4CCO4)CC3)n2)c(F)c1 [Compound 314, (S)-2-((1-(6-(4-cyano-2-fluorobenzyloxy)pyridin-2-yl)piperidin-4-ylidene)methyl)-3-(oxetan-2-ylmethyl)-3H-imidazo [4,5-b] pyridine-S-carboxylic acid]",6.82 to 7.82
14,"O=C(O)c1ccc2nc(C=C3CCN(c4cccc(OCc5ccc(F)cc5F)n4)CC3)n(C[C@@H]3CCO3)c2n1 [Compound 315, (S)-2-((1-(6-(2,4-difluorobenzyloxy)pyridin-2-yl)piperidin-4-ylidene)methyl)-3-(oxetan-2-ylmethyl)-3H-imidazo[4,5-b]pyridine-5-carboxylic acid]",6.00 to 6.82
15,"N#Cc1ccc(COc2cccc(N3CCC(=Cc4nc5ccc(C(=O)O)nc5n4C[C@@H]4CCO4)CC3)n2)nc1 [Compound 316, (S)-2-((1-(6-((5-cyanopyridin-2-yl)methoxy)pyridin-2-yl)piperidin-4-ylidene)methyl)-3-(oxetan-2-ylmethyl)-3H-imidazo[4,5-b]pyridine-5-carboxylic acid]",6.82 to 7.82

# The next lines start with the values.
row,pEC50,Compound
1,> 7.82,"N#Cc1ccc(COc2cccc(N3CCC(=Cc4nc5ccc(C(=O)O)cc5n4C[C@@H]4CCO4)CC3)n2)c(F)c1 [Compound 317, (S)-2-((1-(6-((4-cyano-2-fluorobenzyl)oxy)pyridin-2-yl)piperidin-4-ylidene)methyl)-1-(oxetan-2-ylmethyl)-1H-benzo[d]imidazole-6-carboxylic acid]"
2,6.82 to 7.82,"N#Cc1ccc(COc2cccc(N3CCC(=Cc4nc5ccc(C(=O)O)c(F)c5n4C[C@@H]4CCO4)CC3)n2)nc1 [Compound 318, (S)-2-((1-(6-((5-cyanopyridin-2-yl)methoxy)pyridin-2-yl)piperidin-4-ylidene)methyl)-7-fluoro-1-(oxetan-2-ylmethyl)-1H-benzo[d]imidazole-6-carboxylic acid]"
3,6.82 to 7.82,"O=C(O)c1ccc2nc(CC3CCC(c4cccc(OCc5ccc(Cl)cc5F)n4)CC3)n(C[C@@H]3CCO3)c2c1 (stereo partly drawn) [Compound 319, (S)-2-((4-(6-((4-chloro-2-fluorobenzyl)oxy)pyridin-2-yl)cyclohexyl)methyl)-1-(oxetan-2-ylmethyl)-1H-benzo[d]imidazole-6-carboxylic acid]"
4,6.82 to 7.82,"N#Cc1ccc(COc2cccc(-c3ccc(Nc4nc5ccc(C(=O)O)cc5n4C[C@@H]4CCO4)c(F)c3)n2)c(F)c1 [Compound 320, (S)-2-((4-(6-((4-cyano-2-fluorobenzyl)oxy)pyridin-2-yl)-2-fluorophenyl)amino)-1-(oxetan-2-ylmethyl)-1H-benzo[d]imidazole-6-carboxylic acid]"
5,6.82 to 7.82,"N#Cc1ccc(COc2cccc(-c3ccn(Cc4nc5ccc(C(=O)O)nc5n4C[C@@H]4CCO4)c(=O)c3)n2)c(F)c1 [Compound 324, (S)-2-((6-((4-cyano-2-fluorobenzyl)oxy)-2′-oxo-[2,4′-bipyridin]-1′(2′H)-yl)methyl)-3-(oxetan-2-ylmethyl)-3H-imidazo[4,5-b]pyridine-5-carboxylic acid]"
6,6.82 to 7.82,"N#Cc1ccc(COc2nc(-c3ccn(Cc4nc5ccc(C(=O)O)nc5n4C[C@@H]4CCO4)c(=O)c3)ncc2F)c(F)c1 [Compound 325, (S)-2-((4-(4-((4-cyano-2-fluorobenzyl)oxy)-5-fluoropyrimidin-2-yl)-2-oxopyridin-1(2H)-yl)methyl)-3-(oxetan-2-ylmethyl)-3H-imidazo[4,5-b]pyridine-5-carboxylic acid]"
7,6.82 to 7.82,"O=C(O)c1ccc2nc(CN3CC=C(c4cccc(OCc5ccc(Cl)cc5F)n4)CC3)c(Cc3cocn3)n2c1 [Compound 327, 2-((6-((4-chloro-2-fluorobenzyl)oxy)-3′,6′-dihydro-[2,4′-bipyridin]-1′(2′H)-yl)methyl)-3-(oxazol-4-ylmethyl)imidazo[1,2-a]pyridine-6-carboxylic acid]"
8,6.82 to 7.82,"N#Cc1ccc(COc2cccc(C3=CCN(Cc4nc5ccc(B(O)O)cc5n4C[C@@H]4CCO4)CC3)n2)c(F)c1 [Compound 328, (S)-(2-((6-((4-cyano-2-fluorobenzyl)oxy)-3′,6′-dihydro-[2,4′-bipyridin]-1′(2′H)-yl)methyl)-1-(oxetan-2-ylmethyl)-1H-benzo[d]imidazol-6-yl)boronic acid]"
9,6.82 to 7.82,"O=C(O)c1ccc2nc(CN3CC=C(c4cccnc4OCc4ccc(Cl)cc4F)CC3)n(C[C@@H]3CCO3)c2c1 [Compound 329, (S)-2-((2-((4-chloro-2-fluorobenzyl)oxy)-3′,6′-dihydro-[3,4′-bipyridin]-1′(2′H)-yl)methyl)-1-(oxetan-2-ylmethyl)-1H-benzo[d]imidazole-6-carboxylic acid]"
10,> 7.82,"CC1(c2ccc(Cl)cc2F)Oc2cccc(C3=CCN(Cc4nc5ccc(C(=O)O)cc5n4C[C@@H]4CCO4)CC3)c2O1 (stereo partly drawn) [Compound 330, 2-((4-(2-(4-chloro-2-fluorophenyl)-2-methylbenzo[d][1,3]dioxol-4-yl)-5,6-dihydropyridin-1(2H)-yl)methyl)-1-((S)-oxetan-2-ylmethyl)-1H-benzo[d]imidazole-6-carboxylic acid]"

# Target: T1, GLP1R
# Test: not given
# Set-up: Emax: dose or concentration left out as unconfirmed
# Conditions: CHO-K1, […], read-out: β-arrestin recruitment Bmax (%)
# Target sequence in this assay (P43220 24-463): as above
# Target sequence in this assay (P32121 whole entry partner): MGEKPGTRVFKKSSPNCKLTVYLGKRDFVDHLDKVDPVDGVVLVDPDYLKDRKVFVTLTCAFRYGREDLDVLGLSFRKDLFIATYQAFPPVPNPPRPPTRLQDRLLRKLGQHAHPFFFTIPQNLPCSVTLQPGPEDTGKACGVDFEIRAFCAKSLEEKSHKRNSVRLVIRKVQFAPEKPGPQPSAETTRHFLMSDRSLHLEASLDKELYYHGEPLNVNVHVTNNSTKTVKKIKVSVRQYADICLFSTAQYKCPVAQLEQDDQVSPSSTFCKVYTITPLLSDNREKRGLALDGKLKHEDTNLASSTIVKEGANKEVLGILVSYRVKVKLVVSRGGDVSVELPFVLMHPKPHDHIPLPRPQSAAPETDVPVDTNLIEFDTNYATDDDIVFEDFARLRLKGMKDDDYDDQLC
row,Emax [%],Compound
1,28.3,"O=C(O)c1ccc2nc(Cc3ccc(-c4cccc(OCc5ccc(Cl)cc5F)n4)c(F)c3)n(C[C@@H]3CCO3)c2n1 [Compound 102, (S)-2-(4-(6-((4-chloro-2-fluorobenzyl)oxy)pyridin-2-yl)-3-fluorobenzyl)-3-(oxetan-2-ylmethyl)-3H-imidazo[4,5-b]pyridine-5-carboxylic acid]"
2,31.4,"O=C(O)c1ccc2nc(Cc3cc(F)c(-c4cccc(OCc5ccc(Cl)cc5F)n4)cc3F)n(C[C@@H]3CCO3)c2c1 [Compound 257, (S)-2-(4-(6-((4-chloro-2-fluorobenzyl)oxy)pyridin-2-yl)-2,5-difluorobenzyl)-1-(oxetan-2-ylmethyl)-1H-benzo[d]imidazole-6-carboxylic acid]"
3,28.5,"N#Cc1ccc(COc2cccc(-c3cc(F)c(Cc4nc5ccc(C(=O)O)cc5n4C[C@@H]4CCO4)cc3F)n2)c(F)c1 [Compound 271, (S)-2-(4-(6-((4-cyano-2-fluorobenzyl)oxy)pyridin-2-yl)-2,5-difluorobenzyl)-1-(oxetan-2-ylmethyl)-1H-benzo[d]imidazole-6-carboxylic acid]"
4,25.5,"N#Cc1ccc(COc2nc(-c3ccc(Cc4nc5ccc(C(=O)O)nc5n4C[C@@H]4CCO4)c(F)c3)ccc2F)c(F)c1 [Compound 284, (S)-2-(4-(6-(4-cyano-2-fluorobenzyloxy)-5-fluoropyridin-2-yl)-2-fluorobenzyl)-3-(oxetan-2-ylmethyl)-3H-imidazo[4,5-b]pyridine-5-carboxylic acid]"
5,24,"O=C(O)c1ccc2nc(Cc3ccc(-c4ncc(F)c(OCc5ccc(F)cc5F)n4)cc3F)n(C[C@@H]3CCO3)c2n1 [Compound 285, (S)-2-(4-(4-((2,4-difluorobenzyl)oxy)-5-fluoropyrimidin-2-yl)-2-fluorobenzyl)-3-(oxetan-2-ylmethyl)-3H-imidazo[4,5-b]pyridine-5-carboxylic acid]"
